Measurements published in PMC8722715 (Frontiers in Cell and Developmental Biology, 2021).

Tests used:
hNaV1.7 channel = target: T1, hNaV1.7 channel (Homo sapiens, UniProt Q15858); assay: Automated patch-clamp block of hNaV1.7 peak Na+ current in CHO cells; assay type: cell-based; settings: for IC50: CHO cells stably expressing hNaV1.7, SyncroPatch 384 PE whole-cell, holding -100 mV, -10 mV test pulse 50 ms every 5 s, room temperature 18-22°C, 0.3% BSA, steady state or end of 15-min application, mean, S.E.M. and n cells; for hNaV1.7 IC50 versus WT: ratio of analogue mean IC50 to HwTx-IV WT mean IC50 on hNaV1.7
T1 construct: expressed in transfected cells
T1 sequence (Q15858 whole entry): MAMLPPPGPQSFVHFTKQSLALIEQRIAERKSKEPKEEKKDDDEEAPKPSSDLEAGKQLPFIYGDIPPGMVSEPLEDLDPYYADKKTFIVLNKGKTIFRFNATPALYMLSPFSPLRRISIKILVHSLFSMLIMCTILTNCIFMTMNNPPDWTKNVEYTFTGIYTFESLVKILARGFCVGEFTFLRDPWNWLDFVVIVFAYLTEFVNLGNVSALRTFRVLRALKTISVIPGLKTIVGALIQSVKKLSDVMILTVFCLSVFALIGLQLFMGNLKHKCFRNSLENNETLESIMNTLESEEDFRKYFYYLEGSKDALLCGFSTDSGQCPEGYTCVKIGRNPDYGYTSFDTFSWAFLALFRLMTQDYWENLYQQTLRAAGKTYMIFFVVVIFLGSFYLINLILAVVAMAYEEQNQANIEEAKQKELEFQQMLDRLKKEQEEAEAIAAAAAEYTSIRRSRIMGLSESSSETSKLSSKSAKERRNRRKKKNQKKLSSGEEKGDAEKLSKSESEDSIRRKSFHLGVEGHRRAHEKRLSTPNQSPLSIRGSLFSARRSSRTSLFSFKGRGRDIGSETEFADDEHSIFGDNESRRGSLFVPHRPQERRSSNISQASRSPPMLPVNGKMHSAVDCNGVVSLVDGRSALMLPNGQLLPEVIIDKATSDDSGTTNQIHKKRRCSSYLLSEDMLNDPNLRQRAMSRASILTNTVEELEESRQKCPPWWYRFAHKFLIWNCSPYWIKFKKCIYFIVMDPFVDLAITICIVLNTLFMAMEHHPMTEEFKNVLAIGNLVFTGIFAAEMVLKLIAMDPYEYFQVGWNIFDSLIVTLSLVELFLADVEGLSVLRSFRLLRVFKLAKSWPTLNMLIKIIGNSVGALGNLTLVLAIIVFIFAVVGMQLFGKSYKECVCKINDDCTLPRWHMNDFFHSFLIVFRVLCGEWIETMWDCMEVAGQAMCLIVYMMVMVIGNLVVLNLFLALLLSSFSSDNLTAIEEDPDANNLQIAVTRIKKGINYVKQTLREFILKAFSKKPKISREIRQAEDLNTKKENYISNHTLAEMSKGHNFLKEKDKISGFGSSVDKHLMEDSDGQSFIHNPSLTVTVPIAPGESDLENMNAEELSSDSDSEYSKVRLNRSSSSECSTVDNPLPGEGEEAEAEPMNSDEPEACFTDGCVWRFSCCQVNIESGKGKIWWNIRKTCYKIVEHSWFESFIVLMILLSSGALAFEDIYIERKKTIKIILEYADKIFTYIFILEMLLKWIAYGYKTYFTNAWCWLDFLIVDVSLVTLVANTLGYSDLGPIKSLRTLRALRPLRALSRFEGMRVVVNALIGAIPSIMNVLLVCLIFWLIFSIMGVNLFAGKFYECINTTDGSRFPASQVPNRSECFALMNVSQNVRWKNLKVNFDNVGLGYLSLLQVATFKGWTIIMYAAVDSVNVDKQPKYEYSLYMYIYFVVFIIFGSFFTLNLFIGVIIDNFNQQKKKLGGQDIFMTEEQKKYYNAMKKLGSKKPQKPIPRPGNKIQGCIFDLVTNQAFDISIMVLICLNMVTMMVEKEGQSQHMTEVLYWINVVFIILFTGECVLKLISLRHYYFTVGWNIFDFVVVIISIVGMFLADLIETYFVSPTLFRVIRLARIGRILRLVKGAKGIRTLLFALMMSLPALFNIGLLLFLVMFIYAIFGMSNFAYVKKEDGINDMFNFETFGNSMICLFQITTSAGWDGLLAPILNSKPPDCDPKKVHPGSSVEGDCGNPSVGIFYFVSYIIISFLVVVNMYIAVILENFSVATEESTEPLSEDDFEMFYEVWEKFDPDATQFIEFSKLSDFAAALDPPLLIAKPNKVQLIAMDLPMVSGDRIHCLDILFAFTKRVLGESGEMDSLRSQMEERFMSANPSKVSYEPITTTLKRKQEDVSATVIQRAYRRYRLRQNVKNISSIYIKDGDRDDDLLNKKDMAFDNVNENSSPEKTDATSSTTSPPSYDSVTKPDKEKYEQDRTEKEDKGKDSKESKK
Method: (§1) CHO cells stably expressing the hNaV1.7 channel subtype were cultured in Dulbecco’s Modified Eagle’s Medium F-12 (DMEM/F12) supplemented with 10% fetal bovine serum, 2 mM glutamine, 200 μg/ml hygromycine B, 10 U/ml penicillin and 10 μg/ml streptomycin (Gibco, Grand Island, NY). HEK-293 cells stably expressing the hNaV1.6 channel subtype were cultured in Dulbecco’s Modified Eagle’s Medium (DMEM) supplemented with 10% fetal calf serum, 1 mM pyruvic acid, 4.5 g/L glucose, 2 mM glutamine, 800 μg/ml G418, 10 U/ml penicillin and 10 μg/ml streptomycin (Gibco, Grand Island, NY). All cell lines were incubated at 37°C in a 5% CO2 atmosphere. For electrophysiological recordings, cells were detached with trypsin, and floating single cells were diluted (∼300,000 cells/ml) in an extracellular solution containing (in mM): 140 NaCl, 4 KCl, 2 CaCl2, 1 MgCl2, 5 glucose and 10 HEPES (pH 7.4, osmolarity 298 mOsm), that was used throughout the experiments.
HwTx-IV analogues were investigated on CHO cells expressing hNav1.7 channel and HEK-293 cells expressing hNaV1.6 channel using the automated patch-clamp system from Nanion (SyncroPatch 384 PE; München, Germany). Chips with single-hole and high-resistance (∼6–7 MΩ) were used for both cell lines. Voltage pulses and whole-cell recordings were achieved using the PatchControl384 v1.5.2 software (Nanion) and the Biomek v1.0 interface (Beckman Coulter). Prior to recordings, dissociated cells were shaken at 200 RPM in a cell hotel reservoir at 10°C. After cell catching, sealing, whole-cell formation, liquid application, recording, and data acquisition were all performed sequentially and automatically. The intracellular solution contained (in mM): 110 CsF, 10 CsCl, 10 NaCl, 1 MgCl2, 1 CaCl2, 10 EGTA and 10 HEPES (pH 7.2, osmolarity 280 mOsm), and the extracellular solution was as described above. Whole-cell experiments were done at −100 mV holding potential and at room temperature (18–22°C), while currents triggered at either −10 or 0 mV test potential were sampled at 20 kHz. Stimulation frequency was set at 0.2 Hz. Each HwTx-IV analogue was prepared at various concentrations in the extracellular solution, itself supplemented with 0.3% of bovine serum albumin (BSA), also added in the control solution. […] Compound solutions were diluted 3 times in the patch-clamp recording well by adding 30–60 μl external solution, to reach the final reported concentration and the test volume of 90 μl. For establishing dose-response curves, the compounds were tested at a test potential of either −10 or 0 mV for 50 ms with a pulse every 5 s. Percentages of current inhibition were measured at steady-state of blockage or at the end of a 15-min application time.

hNaV1.6 channel = target: T2, hNaV1.6 channel (Homo sapiens, UniProt Q9UQD0); assay: Automated patch-clamp block of hNaV1.6 peak Na+ current in HEK-293 cells; assay type: cell-based; settings: for IC50: HEK-293 cells stably expressing hNaV1.6, SyncroPatch 384 PE whole-cell, holding -100 mV, 0 mV test pulse 50 ms every 5 s, room temperature 18-22°C, 0.3% BSA, steady state or end of 15-min application, mean, S.E.M. and n cells; for hNaV1.6 IC50 versus WT: ratio of analogue mean IC50 to HwTx-IV WT mean IC50 on hNaV1.6
T2 construct: expressed in transfected cells
T2 sequence (Q9UQD0 whole entry): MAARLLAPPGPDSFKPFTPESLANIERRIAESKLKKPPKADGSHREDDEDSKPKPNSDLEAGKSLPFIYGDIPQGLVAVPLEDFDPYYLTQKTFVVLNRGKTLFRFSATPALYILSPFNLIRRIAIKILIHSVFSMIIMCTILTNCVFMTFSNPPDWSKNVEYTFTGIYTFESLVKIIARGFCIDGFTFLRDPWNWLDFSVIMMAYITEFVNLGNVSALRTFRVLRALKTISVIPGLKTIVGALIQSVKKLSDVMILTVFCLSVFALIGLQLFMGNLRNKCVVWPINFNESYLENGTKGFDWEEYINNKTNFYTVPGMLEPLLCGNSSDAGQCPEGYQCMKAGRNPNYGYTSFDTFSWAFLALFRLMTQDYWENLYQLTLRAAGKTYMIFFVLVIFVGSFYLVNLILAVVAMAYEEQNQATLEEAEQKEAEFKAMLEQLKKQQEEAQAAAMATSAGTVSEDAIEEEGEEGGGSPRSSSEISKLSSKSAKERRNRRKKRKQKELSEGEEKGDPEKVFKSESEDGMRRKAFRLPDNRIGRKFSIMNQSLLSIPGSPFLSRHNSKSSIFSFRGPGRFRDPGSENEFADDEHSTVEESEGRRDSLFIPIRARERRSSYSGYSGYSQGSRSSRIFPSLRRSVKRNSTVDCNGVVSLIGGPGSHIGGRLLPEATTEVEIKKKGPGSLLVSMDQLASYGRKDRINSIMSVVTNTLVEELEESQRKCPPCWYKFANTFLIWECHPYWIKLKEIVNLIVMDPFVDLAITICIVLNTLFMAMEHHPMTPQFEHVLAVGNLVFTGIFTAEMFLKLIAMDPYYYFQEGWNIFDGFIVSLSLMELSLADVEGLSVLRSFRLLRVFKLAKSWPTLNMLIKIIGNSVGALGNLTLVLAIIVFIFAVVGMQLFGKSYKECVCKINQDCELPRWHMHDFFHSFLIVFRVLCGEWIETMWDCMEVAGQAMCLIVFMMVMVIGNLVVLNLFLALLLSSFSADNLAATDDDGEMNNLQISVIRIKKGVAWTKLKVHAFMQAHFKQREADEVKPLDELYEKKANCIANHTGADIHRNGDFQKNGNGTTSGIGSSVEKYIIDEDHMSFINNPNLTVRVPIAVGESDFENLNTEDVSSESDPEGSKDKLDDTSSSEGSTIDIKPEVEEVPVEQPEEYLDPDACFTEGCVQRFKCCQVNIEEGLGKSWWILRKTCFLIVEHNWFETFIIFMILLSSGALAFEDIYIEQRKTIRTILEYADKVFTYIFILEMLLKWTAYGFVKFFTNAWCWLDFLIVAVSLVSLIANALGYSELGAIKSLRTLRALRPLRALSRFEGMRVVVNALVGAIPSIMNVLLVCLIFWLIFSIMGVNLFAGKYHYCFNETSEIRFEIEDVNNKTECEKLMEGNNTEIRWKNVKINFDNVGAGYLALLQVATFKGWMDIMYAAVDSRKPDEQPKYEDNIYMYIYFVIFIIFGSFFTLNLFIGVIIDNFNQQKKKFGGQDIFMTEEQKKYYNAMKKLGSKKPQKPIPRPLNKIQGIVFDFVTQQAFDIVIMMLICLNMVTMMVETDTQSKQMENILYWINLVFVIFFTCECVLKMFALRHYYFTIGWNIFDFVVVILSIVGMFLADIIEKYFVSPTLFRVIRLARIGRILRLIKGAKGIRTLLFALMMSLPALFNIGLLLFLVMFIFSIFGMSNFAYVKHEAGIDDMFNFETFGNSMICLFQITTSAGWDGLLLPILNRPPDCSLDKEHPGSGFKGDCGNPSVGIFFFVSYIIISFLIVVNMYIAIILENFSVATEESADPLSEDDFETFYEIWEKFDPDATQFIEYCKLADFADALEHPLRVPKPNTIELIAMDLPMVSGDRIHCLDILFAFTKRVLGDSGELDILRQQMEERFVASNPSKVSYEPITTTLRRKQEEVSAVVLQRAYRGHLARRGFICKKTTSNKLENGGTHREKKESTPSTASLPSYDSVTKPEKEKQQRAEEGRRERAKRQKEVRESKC
Method: as §1
HwTx-IV analogues were investigated on CHO cells expressing hNav1.7 channel and HEK-293 cells expressing hNaV1.6 channel using the automated patch-clamp system from Nanion (SyncroPatch 384 PE; München, Germany). Chips with single-hole and high-resistance (∼6–7 MΩ) were used for both cell lines. Voltage pulses and whole-cell recordings were achieved using the PatchControl384 v1.5.2 software (Nanion) and the Biomek v1.0 interface (Beckman Coulter). Prior to recordings, dissociated cells were shaken at 200 RPM in a cell hotel reservoir at 10°C. After cell catching, sealing, whole-cell formation, liquid application, recording, and data acquisition were all performed sequentially and automatically. The intracellular solution contained (in mM): 110 CsF, 10 CsCl, 10 NaCl, 1 MgCl2, 1 CaCl2, 10 EGTA and 10 HEPES (pH 7.2, osmolarity 280 mOsm), and the extracellular solution was as described above. Whole-cell experiments were done at −100 mV holding potential and at room temperature (18–22°C), while currents triggered at either −10 or 0 mV test potential were sampled at 20 kHz. Stimulation frequency was set at 0.2 Hz. Each HwTx-IV analogue was prepared at various concentrations in the extracellular solution, itself supplemented with 0.3% of bovine serum albumin (BSA), also added in the control solution. The peptides were distributed in 384-well microplates according to the number of compounds to be tested (generally four), the concentration range defined from the IC50 of wild-type HwTx-IV, and the number of cells desired for each experimental condition. Compound solutions were diluted 3 times in the patch-clamp recording well by adding 30–60 μl external solution, to reach the final reported concentration and the test volume of 90 μl. For establishing dose-response curves, the compounds were tested at a test potential of either −10 or 0 mV for 50 ms with a pulse every 5 s. Percentages of current inhibition were measured at steady-state of blockage or at the end of a 15-min application time.

`CC[C@H](C)[C@H](NC(=O)[C@H](CCC(N)=O)NC(=O)[C@H](Cc1ccc(O)cc1)NC(=O)[C@H](CCCCN)NC(=O)[C@@H]1CSSC[C@@H]2NC(=O)[C@H](CCC(N)=O)NC(=O)[C@H](CC(=O)O)NC(=O)[C@H](CC(N)=O)NC(=O)[C@H](CO)NC(=O)[C@@H]3CCCN3C(=O)[C@H](CC(N)=O)NC(=O)[C@@H]3CSSC[C@H](NC(=O)[C@H](C(C)C)NC(=O)[C@H](CC(C)C)NC(=O)[C@H](CCCCN)NC(=O)[C@H](CO)NC(=O)[C@H](CO)NC(=O)[C@H](CCCCN)NC(=O)[C@H](CSSC[C@H](NC(=O)[C@@H](N)CCC(=O)O)C(=O)N[C@@H](CC(C)C)C(=O)N[C@@H](CCC(=O)O)C(=O)N[C@@H]([C@@H](C)CC)C(=O)N[C@@H](Cc4ccccc4)C(=O)N[C@@H](CCCCN)C(=O)N[C@@H](C)C(=O)N3)NC2=O)C(=O)N[C@@H](CO)C(=O)N[C@@H](CCCNC(=N)N)C(=O)N[C@@H](CCCCN)C(=O)N[C@@H]([C@@H](C)O)C(=O)N[C@@H](CCCNC(=N)N)C(=O)N[C@@H](Cc2c[nH]c3ccccc23)C(=O)N1)C(=O)O` [HwTx-IV CterCOOH] was tested, and the IC50 (hNaV1.7 channel) was 176 nM, the “hNaV1.7 IC50 versus WT” value (hNaV1.7 channel) was 17.81 and the IC50 (hNaV1.6 channel) was 1230 nM. For the same molecule, the “hNaV1.6 IC50 versus WT” value (hNaV1.6 channel) was 5.43.
`CC[C@H](C)[C@H](NC(=O)[C@H](CCC(N)=O)NC(=O)[C@H](Cc1ccc(O)cc1)NC(=O)[C@H](CCCCN)NC(=O)[C@@H]1CSSC[C@@H]2NC(=O)[C@H](CCC(N)=O)NC(=O)[C@H](CC(=O)O)NC(=O)[C@H](CC(N)=O)NC(=O)[C@H](CO)NC(=O)[C@@H]3CCCN3C(=O)[C@H](CC(N)=O)NC(=O)[C@@H]3CSSC[C@H](NC(=O)[C@H](C(C)C)NC(=O)[C@H](CC(C)C)NC(=O)[C@H](CCCCN)NC(=O)[C@H](CO)NC(=O)[C@H](CO)NC(=O)[C@H](C)NC(=O)[C@H](CSSC[C@H](NC(=O)CN)C(=O)N[C@@H](CC(C)C)C(=O)NCC(=O)N[C@@H]([C@@H](C)CC)C(=O)N[C@@H](Cc4ccccc4)C(=O)N[C@@H](CCCCN)C(=O)N[C@@H](C)C(=O)N3)NC2=O)C(=O)N[C@@H](CO)C(=O)N[C@@H](CCCNC(=N)N)C(=O)N[C@@H](CCCCN)C(=O)N[C@@H]([C@@H](C)O)C(=O)N[C@@H](CCCNC(=N)N)C(=O)N[C@@H](Cc2c[nH]c3ccccc23)C(=O)N1)C(N)=O` [HwTx-IV E^1G/E^4G/K^18A] was tested, and the IC50 (hNaV1.7 channel) was 0.8 nM, the “hNaV1.7 IC50 versus WT” value (hNaV1.7 channel) was 0.08 and the IC50 (hNaV1.6 channel) was 4.9 nM. The “hNaV1.6 IC50 versus WT” value (hNaV1.6 channel) was 0.02.
In the case of `CC[C@H](C)[C@H](NC(=O)[C@H](CCC(N)=O)NC(=O)[C@H](Cc1ccc(O)cc1)NC(=O)[C@H](CCCCN)NC(=O)[C@@H]1CSSC[C@@H]2NC(=O)[C@H](CCC(N)=O)NC(=O)[C@H](CC(=O)O)NC(=O)[C@H](CC(N)=O)NC(=O)[C@H](CO)NC(=O)[C@@H]3CCCN3C(=O)[C@H](CC(N)=O)NC(=O)[C@@H]3CSSC[C@H](NC(=O)[C@H](C(C)C)NC(=O)[C@H](CC(C)C)NC(=O)[C@H](CCCCN)NC(=O)[C@H](CO)NC(=O)[C@H](CO)NC(=O)[C@H](CCCCN)NC(=O)[C@H](CSSC[C@H](NC(=O)CN)C(=O)N[C@@H](CC(C)C)C(=O)NCC(=O)N[C@@H]([C@@H](C)CC)C(=O)N[C@@H](Cc4ccccc4)C(=O)N[C@@H](CCCCN)C(=O)N[C@@H](C)C(=O)N3)NC2=O)C(=O)N[C@@H](CO)C(=O)N[C@@H](CCCNC(=N)N)C(=O)N[C@@H](CCCCN)C(=O)N[C@@H]([C@@H](C)O)C(=O)N[C@@H](CCCNC(=N)N)C(=O)N[C@@H](Cc2c[nH]c3ccccc23)C(=O)N1)C(N)=O` [HwTx-IV E^1G/E^4G], the IC50 (hNaV1.7 channel) is reported as 2 nM, the hNaV1.7/hNaV1.6 selectivity ratio (hNaV1.7 channel; inverse ratio of the mean IC50 values on hNaV1.7 (CHO) and hNaV1.6 (HEK-293) of Table 1) is reported as “less than 2” and the “hNaV1.7 IC50 versus WT” value (hNaV1.7 channel) is reported as 0.20. The IC50 (hNaV1.6 channel) was 3.7 nM and the “hNaV1.6 IC50 versus WT” value (hNaV1.6 channel) was 0.02.
With `CC[C@H](C)[C@H](NC(=O)[C@H](CCC(N)=O)NC(=O)[C@H](Cc1ccc(O)cc1)NC(=O)[C@H](CCCCN)NC(=O)[C@@H]1CSSC[C@@H]2NC(=O)[C@H](CCC(N)=O)NC(=O)[C@H](CC(=O)O)NC(=O)[C@H](CC(N)=O)NC(=O)[C@H](CO)NC(=O)[C@@H]3CCCN3C(=O)[C@H](CC(N)=O)NC(=O)[C@@H]3CSSC[C@H](NC(=O)[C@H](C(C)C)NC(=O)[C@H](CC(C)C)NC(=O)[C@H](CCCCN)NC(=O)[C@H](CO)NC(=O)[C@H](CO)NC(=O)[C@H](CCCCN)NC(=O)[C@H](CSSC[C@H](NC(=O)[C@@H](N)CCC(=O)O)C(=O)N[C@@H](CC(C)C)C(=O)N[C@@H](CCC(=O)O)C(=O)N[C@@H]([C@@H](C)CC)C(=O)N[C@@H](Cc4ccccc4)C(=O)N[C@@H](CCCCN)C(=O)N[C@@H](C)C(=O)N3)NC2=O)C(=O)N[C@@H](CO)C(=O)N[C@@H](CCCNC(=N)N)C(=O)N[C@@H](CCCCN)C(=O)N[C@@H](Cc2c[nH]c3ccccc23)C(=O)N[C@@H](CCCNC(=N)N)C(=O)N[C@@H](Cc2c[nH]c3ccccc23)C(=O)N1)C(N)=O` [HwTx-IV T^28W] the IC50 (hNaV1.7 channel) was 114 nM and the “hNaV1.7 IC50 versus WT” value (hNaV1.7 channel) was 11.53.
